The test system of one experiment is N171-82Q HD mice. The experiment in a line: High-altitude balance beam (11 mm) experiment 1, HD mice. It is filed as in vivo, mouse. Particulars: 5 mg/kg/d intragastric, 12 w. As to the method:
(§1) 7-week-old N171-82Q HD male mice were paired with female B6C3F1/J hybrid mice to obtain newborn mice. From 21 days of age, male mice were housed in separate cages. 0.5 cm of mouse tail tissue was removed to extract DNA to determine the genotype of the mouse, such that N171-82Q HD mice and WT mice needed for the experiment were obtained. The mice were randomly divided into WT Vehicle group (normal mice), WT test compound group (administration group of normal mice, 5 mg/kg/d, n=10), HD Vehicle group (blank group of HD mice, n=15), HD test compound group (administration groups 1-5 of HD mice, 5 mg/kg/d, n=10). The test compound was suspended in 1% CMC-Na solution and administered by intragastric administration until the end of the study. The weights of the mice were measured every week. Behavioral tests were performed at 12 weeks, 18 weeks, and 24 weeks of age to investigate motor function. At 20 weeks, 3 samples of tissue from each group were used for western blotting and immunohistochemistry. At 24 weeks, MRI scans were performed. At the end of the study, the effect of the test compound on the mortality of mice was evaluated.
The software Sigmaplot 13.0 was used for statistical analysis of the data, and the data of each group was expressed as mean standard error (x±SEM). Behavioral test results were analyzed using two-way (genotype and processing factor) ANOVA and post-ho tests, the comparison and statistics of weight data were performed using two-way (genotype and age) ANOVA of repeated measures, and mortality was counted using Kaplan-Meier method. Other measurement data were analyzed by one-way ANOVA. P<0.05 was considered statistically significant.
The motor function of mice was evaluated by the rotarod experiment and three types of balance beam experiments. The shorter the time for mouse to cross the balance beam, and the longer the time to drop, the stronger the coordination ability of the mouse.
A square balance beam with a length of 100 cm and a width of 11 mm was placed at a 45-degree angle to the horizontal ground. A black box (12×12×12 cm) was placed at the end of the balance beam, and the starting platform was illuminated by bright lights. Spacers were placed under the balance beam to provide cushioning in case that the animal falls off the beam. One hour before the test, the mice were trained to cross the beam three times at one-eighth, one-quarter, and full-length distances from the black box, respectively. If the mice stopped walking during training, they were gently pressed with long forceps on the tail to encourage movement. After the training experiment, the mice rested for at least one hour in an undisturbed environment. In the experiment, the maximum time for each mouse to cross the balance beam was set to 60 seconds. If the time for crossing the beams was greater than 60 seconds, it was recorded as 60 seconds.
a round balance beam with a length of 80 cm and a diameter of 11 mm was place at a height of about 50 cm from the ground. The following steps are the same as the slope balance beam experiment.
Regarding `O=c1cc(-c2ccc(N3CCCCC3)cc2)oc2c(O)c(O)ccc12` [Example 1, 7,8-dihydroxy-2-(4-(piperidin-1-yl)phenyl)-4H-chromen-4-one], the “Time for crossing the beams, high-altitude balance beam (11 mm)” value (shortened to “Time for crossing the beams”) is 8.20 ± 1.64 s.
For the compound `COc1ccc2c(=O)cc(-c3ccc(N4CCCCC4)cc3)oc2c1OC` [Example 2, 7,8-dimethoxy-2-(4-(piperidin-1-yl)phenyl)-4H-chromen-4-one], the “Time for crossing the beams” value is on record as 8.98 ± 1.75 s.
Same read-out and setting: under `CN(C)C1CCN(c2ccc(-c3cc(=O)c4ccc(O)c(O)c4o3)cc2)CC1` [Example 3, 2-(4-(4-(dimethylamino)piperidin-1-yl)phenyl)-7,8-dihydroxy-4H-chromen-4-one] stands 7.94 ± 1.64 s; under `CC1(C)CCN(c2ccc(-c3cc(=O)c4ccc(O)c(O)c4o3)cc2)CC1` [Example 4, 2-(4-(4,4-dimethylpiperidin-1-yl)phenyl)-7,8-dihydroxy-4H-chromen-4-one], 8.57 ± 2.12 s.
Still for that read-out and setting: the result for `CC1CC(C)CN(c2ccc(-c3cc(=O)c4ccc(O)c(O)c4o3)cc2)C1` (stereo not shown) [Example 5, 2-(4-(3,5-dimethylpiperidin-1-yl)phenyl)-7,8-dihydroxy-4H-chromen-4-one] reads 8.04 ± 1.67 s.

The same experiment, now with this note: 5 mg/kg/d intragastric, 18 w.
Regarding `O=c1cc(-c2ccc(N3CCCCC3)cc2)oc2c(O)c(O)ccc12` [Example 1, 7,8-dihydroxy-2-(4-(piperidin-1-yl)phenyl)-4H-chromen-4-one], the “Time for crossing the beams” value turned out to be 7.55 ± 2.42 s.
With `COc1ccc2c(=O)cc(-c3ccc(N4CCCCC4)cc3)oc2c1OC` [Example 2, 7,8-dimethoxy-2-(4-(piperidin-1-yl)phenyl)-4H-chromen-4-one], the “Time for crossing the beams” value is recorded as 8.59 ± 2.18 s.
Take `CN(C)C1CCN(c2ccc(-c3cc(=O)c4ccc(O)c(O)c4o3)cc2)CC1` [Example 3, 2-(4-(4-(dimethylamino)piperidin-1-yl)phenyl)-7,8-dihydroxy-4H-chromen-4-one]: the “Time for crossing the beams” value came to 8.15 ± 1.96 s.
For `CC1(C)CCN(c2ccc(-c3cc(=O)c4ccc(O)c(O)c4o3)cc2)CC1` [Example 4, 2-(4-(4,4-dimethylpiperidin-1-yl)phenyl)-7,8-dihydroxy-4H-chromen-4-one], the “Time for crossing the beams” value is listed as 8.99 ± 2.29 s.
With `CC1CC(C)CN(c2ccc(-c3cc(=O)c4ccc(O)c(O)c4o3)cc2)C1` (stereo not shown) [Example 5, 2-(4-(3,5-dimethylpiperidin-1-yl)phenyl)-7,8-dihydroxy-4H-chromen-4-one], the “Time for crossing the beams” value is 8.61 ± 3.25 s.

The experiment is the same for the next values; noted with them: 5 mg/kg/d intragastric, 24 w.
With `O=c1cc(-c2ccc(N3CCCCC3)cc2)oc2c(O)c(O)ccc12` [Example 1, 7,8-dihydroxy-2-(4-(piperidin-1-yl)phenyl)-4H-chromen-4-one], the “Time for crossing the beams” value worked out at 9.18 ± 3.84 s.
For `COc1ccc2c(=O)cc(-c3ccc(N4CCCCC4)cc3)oc2c1OC` [Example 2, 7,8-dimethoxy-2-(4-(piperidin-1-yl)phenyl)-4H-chromen-4-one], the “Time for crossing the beams” value is recorded as 9.68 ± 2.97 s.
In the case of `CN(C)C1CCN(c2ccc(-c3cc(=O)c4ccc(O)c(O)c4o3)cc2)CC1` [Example 3, 2-(4-(4-(dimethylamino)piperidin-1-yl)phenyl)-7,8-dihydroxy-4H-chromen-4-one], the “Time for crossing the beams” value is given as 8.38 ± 3.78 s.
On to `CC1(C)CCN(c2ccc(-c3cc(=O)c4ccc(O)c(O)c4o3)cc2)CC1` [Example 4, 2-(4-(4,4-dimethylpiperidin-1-yl)phenyl)-7,8-dihydroxy-4H-chromen-4-one], for which the “Time for crossing the beams” value was found to be 9.38 ± 2.94 s.
Regarding `CC1CC(C)CN(c2ccc(-c3cc(=O)c4ccc(O)c(O)c4o3)cc2)C1` (stereo not shown) [Example 5, 2-(4-(3,5-dimethylpiperidin-1-yl)phenyl)-7,8-dihydroxy-4H-chromen-4-one], the “Time for crossing the beams” value is recorded as 9.77 ± 4.89 s.

The test system of the next experiment is N171-82Q HD mice. As to the kind of experiment: DARPP32 protein level in striatum by Western blotting, HD mice. It is filed as in vivo, mouse. Particulars: 5 mg/kg/d until 25 weeks, WT Vehicle = 100, n = 3. The method, then:
as §1
Dopamine and cAMP-regulated phosphoprotein (DARPP-32), with a molecular weight of 32 kDa, is a basic component of dopamine signaling cascade. A pathological feature of HD is the massive loss of MSNs which can express high level of DARPP32, in the striatum. Therefore, DARPP32 can be used as a marker of nerve damage and nerve dysfunction in the HD model. After the behavioral evaluation of the mice in each experimental group was completed and the administration continued until 25 weeks, 3 mice were taken from each group to separate hippocampal tissue, striatum, and neurocortex tissue. The total protein in the striatum tissue was extracted, and the protein level of DARPP 32 was detected by Western blotting experiment.
The striatum tissue block was lysed in 100 μL of lysis buffer (RIPA buffer 10 mL, protease inhibitor 100 μL, phosphatase inhibitor 100 μL) on ice for 30 min, and then pulverized with an ultrasonic cell pulverizer, and then centrifuged at 14000 rpm for 20 min at 4° C. The supernatant was transferred to a new 1.5 mL centrifuge tube. The protein was extracted, and the protein level of DARPP 32 was detected by Western blotting.
In general terms: A western blot detects proteins with antibodies after separation by electrophoresis.
Take `O=c1cc(-c2ccc(N3CCCCC3)cc2)oc2c(O)c(O)ccc12` [Example 1, 7,8-dihydroxy-2-(4-(piperidin-1-yl)phenyl)-4H-chromen-4-one]: the “Relative intensity of DARPP32 protein” value is reported as 96.971 ± 3.607.
Still for that read-out and setting: under `COc1ccc2c(=O)cc(-c3ccc(N4CCCCC4)cc3)oc2c1OC` [Example 2, 7,8-dimethoxy-2-(4-(piperidin-1-yl)phenyl)-4H-chromen-4-one] stands 96.113 ± 2.681.
`CN(C)C1CCN(c2ccc(-c3cc(=O)c4ccc(O)c(O)c4o3)cc2)CC1` [Example 3, 2-(4-(4-(dimethylamino)piperidin-1-yl)phenyl)-7,8-dihydroxy-4H-chromen-4-one]: the “Relative intensity of DARPP32 protein” value is given as 97.032 ± 3.887.
The same measure, in the same setting: under `CC1(C)CCN(c2ccc(-c3cc(=O)c4ccc(O)c(O)c4o3)cc2)CC1` [Example 4, 2-(4-(4,4-dimethylpiperidin-1-yl)phenyl)-7,8-dihydroxy-4H-chromen-4-one] stands 97.348 ± 3.438; under `CC1CC(C)CN(c2ccc(-c3cc(=O)c4ccc(O)c(O)c4o3)cc2)C1` (stereo not shown) [Example 5, 2-(4-(3,5-dimethylpiperidin-1-yl)phenyl)-7,8-dihydroxy-4H-chromen-4-one], 96.797 ± 3.018.

The subject of a further experiment is rats with permanent cerebral ischemia. As to the kind of experiment: Cerebral infarction volume by TTC staining in rats with permanent cerebral ischemia. The following applies: 20 mg/kg by gavage, after 7 days of ischemia. It is filed as in vivo, SD rats. As to the method: SD rats, male, about 220-250 g, were provided by the Experimental Animal Center of Medical College of Xi'an Jiaotong University. Rats were randomly divided into groups of 14 animals/group. The experiment included a sham group, a model group, a positive control Edaravone group and test compound groups 1-5.12 hours before the operation, the rats were fasted and were free to drink water, and then used for the modeling method of middle cerebral artery occlusion with thread plug. The rats were fixed on a wooden board after anesthesia, the common carotid artery was ligated proximally, the external carotid artery was ligated distally, and the main internal carotid artery into skull was retained. A ligature line was reserved at the bifurcation of the internal carotid artery for temporarily clamping the distal end of the internal carotid artery using an arterial clip. A 3-0 nylon thread with a length of 5 cm and a spherical shape with a diameter of 0.3 mm at the tip was inserted into the common carotid artery through a small incision at the bifurcation. The arterial clamp was loosened, and the thread plug was slowly advanced to 18˜20 mm. When there was resistance, the progress of the thread was stopped. At this time, the nylon thread plug entered the middle artery and blocked the blood flow, and then the ischemic phase began. The skin was sutured. In the sham operation group, the same procedure was executed, except that no thread plug was inserted.
Administering was performed at 0 h, 3 h, 6 h and 12 h after ischemia, and then administering was performed once a day for 7 consecutive days. The test compound was prepared into a 4 mg/mL solution with 1% CMC-Na solution and administered by gavage. The edaravone group received an intravenous dose of 0.078 mg/kg.
3) Percentage of cerebral infarction volume after 7 days of ischemia: TTC staining was used to observe the infarct area.
The rats in each group were sacrificed by spinal dislocation […]. The brain tissue was quickly peeled off and placed in the refrigerator at −20° C. to freeze to an appropriate hardness to remove the olfactory bulb, cerebellum and low brain stem. Continuous coronary slices were performed at 1 mm intervals, to obtain a total of 5 slices. The slices were placed in 0.5% triphenyltetrazolium chloride (TTC) in phosphate buffer (pH=7.4) and incubated in a 37° C. incubator without light for 15 min, and then fixed in paraformaldehyde and observed (fixed time should be within 24 h). The normal brain tissue is rosy red, and infarcted brain tissue is pale. After taking the picture, the slice was scanned to save the image. The area of cerebral infarction and the total area of slices were calculated using Image J processing software.
Cerebral infarction volume (%)=(volume of the contralateral hemisphere of the operation−volume of the uninfarcted portion of the hemisphere of the occlusion)/volume of the contralateral hemisphere of the operation×100%
(2) Statistical analysis of data: SPSS18.0 statistical software was used for statistical analysis and the data of each group was expressed as the mean standard error (x±SEM). One-way ANOVA and multiple comparisons between groups were used to compare the averages of measurement data among multiple groups. Rank score test was used for behavioral grading data, and Kaplan-Meier method was used for mortality. P<0.05 was considered statistically significant.
For the compound `O=c1cc(-c2ccc(N3CCCCC3)cc2)oc2c(O)c(O)ccc12` [Example 1, 7,8-dihydroxy-2-(4-(piperidin-1-yl)phenyl)-4H-chromen-4-one], the “Volume percentage of cerebral infarction” value is listed as 19.58 ± 9.56%.
Take `COc1ccc2c(=O)cc(-c3ccc(N4CCCCC4)cc3)oc2c1OC` [Example 2, 7,8-dimethoxy-2-(4-(piperidin-1-yl)phenyl)-4H-chromen-4-one]: the “Volume percentage of cerebral infarction” value was determined as 19.93 ± 8.89%.
For the compound `CN(C)C1CCN(c2ccc(-c3cc(=O)c4ccc(O)c(O)c4o3)cc2)CC1` [Example 3, 2-(4-(4-(dimethylamino)piperidin-1-yl)phenyl)-7,8-dihydroxy-4H-chromen-4-one], the “Volume percentage of cerebral infarction” value is listed as 20.93 ± 7.65%.
For the compound `CC1(C)CCN(c2ccc(-c3cc(=O)c4ccc(O)c(O)c4o3)cc2)CC1` [Example 4, 2-(4-(4,4-dimethylpiperidin-1-yl)phenyl)-7,8-dihydroxy-4H-chromen-4-one], the “Volume percentage of cerebral infarction” value was 21.33 ± 7.68%.
In the case of `CC1CC(C)CN(c2ccc(-c3cc(=O)c4ccc(O)c(O)c4o3)cc2)C1` (stereo not shown) [Example 5, 2-(4-(3,5-dimethylpiperidin-1-yl)phenyl)-7,8-dihydroxy-4H-chromen-4-one], the “Volume percentage of cerebral infarction” value was determined as 20.50 ± 6.38%.

The values are drawn from US20200390755A1, “COMPOUND FOR TREATING NERVOUS SYSTEM DISEASES AND USE THEREOF” (SHAANXI MICOT TECHNOLOGY CO., LTD., priority 2018, published 2020).
